In PMC6347765, “Streamlined SMFA and mosquito dark-feeding regime significantly improve malaria transmission-blocking assay robustness and sensitivity” (Malaria Journal, 2019):

Experiments:
[1] = test system: P. falciparum NF54 in An. coluzzii; assay: Standard membrane feeding assay (SMFA) with AMPs added to gametocytaemic blood mix; oocyst counts in mosquito midguts; format: in vivo, Plasmodium falciparum; settings: AMP at 50 μM final concentration in gametocytaemic blood mix fed to An. coluzzii; vs PBS-treated control; oocysts counted seven days post-infection; P < 0.001; Fig. 4a
Method: The An. coluzzii N’gousso strain colonized from field-collected mosquitoes of the An. gambiae M molecular form in 2006 in Yaoundé, Cameroon, and the P. falciparum NF54 strain (MRA-1000, patient E) obtained from the MR4 were used for all the experiments reported in this paper. Mosquitoes were reared and maintained at standard insectary conditions (27 ± 1 °C and 70 ± 5%) humidity on a 12:12 light/dark (L:D) cycle: 11.5 h full light of ~ 300 lx starting at 6 am and 11.5 h darkness starting at 6 p.m., separated by 0.5 h dawn and dusk transitions, respectively. All mosquito infection experiments took place between 2 and 4 p.m.
Day 16/17. Gametocyte feeding A 14/15-day old gametocyte culture is used for mosquito infections. Three hours before gametocyte feed, the fructose-soaked cotton ball is removed from the cups to starve the mosquitoes, and mosquito cups are placed in the dark inside a second container for biosafety reasons. The container is placed in an incubator set at standard insectary conditions described above.
One hour before feeding heat-inactivated human serum (56 °C for 30 min) is defrosted at RT and placed on heat block at 37 °C. […]
The gametocyte culture is hand-swirled and placed on 37 °C heat block. […] The number of exflagellation centres formed in the 4 × 4 grid is determined under the microscope (10× objective). […]

[2] = test system: different Plasmodium species; settings: injection into anopheline mosquitoes previously infected with different Plasmodium species; cited from earlier work
From the text: (§1) AMPs from various sources with different levels of plasmodicidal activities have been previously discovered. […] Both AMPs were previously shown to induce parasite killing.

P. falciparum = settings: mixed with gametocytic blood; An. coluzzii; no reference printed in this sentence (preceding sentence ref 34); cited from earlier work
From the text: as §1

P. berghei = settings: in both An. coluzzii and Anopheles stephensi; cited from earlier work
From the text: as §1

P. berghei ookinetes = settings: 50 μM concentration; in vitro produced P. berghei ookinetes; cited from earlier work
From the text: as §1

| Substance | transmission-blocking activity (oocyst infection intensity) compared to control [1] | effect on parasite sporogony [2] | P. falciparum oocyst prevalence and intensity (P. falciparum) | infection prevalence and intensity (P. berghei) | killing of ookinetes (P. berghei ookinetes) |
| --- | --- | --- | --- | --- | --- |
| magainin | significant transmission-blocking activity | completely block parasite sporogony |  |  |  |
| melittin | significant transmission-blocking activity |  | reduce P. falciparum oocyst prevalence and intensity | significant decrease in infection prevalence and intensity | kill |
